Results taken from patent publication US6632794B1, “Insulin-like growth factor agonist molecules” (Genentech, Inc., priority 1997, dated 2003).
pIC50: −log10 of the molar value.

Assays:
hypophysectomized rats = test: Long-term administration to hypophysectomized rats; type: in vivo, rat; conditions: one week
Description: Young female SD rats were hypophysectomized at Taconic Laboratories and delivered several days later. The rats were then weighed frequently and those whose weight increased or decreased by more than 7 grams between 2 and 3 weeks following hypophysectomy were excluded from the study. Twenty-five rats were grouped randomly into five groups based on their body weight, and then randomly assigned to cages, with four rats per cage. The animals were allowed ad libitum access to food and water and housed in a room controlled for temperature and lighting.
1) Excipient pump, excipient injections;
2) (Leu^24,Ala^31)hIGF-I (10 μg/day, by SC minipump), excipient injections;
3) (Leu^24,Ala^31)hIGF-I (50 μg/day, by SC minipump), excipient injections;
4) Recombinant human GH (NUTROPIN™ brand from Genentech, Inc., 20 μg/day, by SC injection, two injections each of 10 μg/day), excipient minipump; or
5) (Leu^24,Ala^31)hIGF-I (50 μg/day, by SC minipump) plus recombinant human GH (20 μg/day, by SC injection, two injections each of 10 μg/day).
The rats were dosed for one week.
The mutant (Leu^24,Ala^31)hIGF-I was administered by osmotic minipumps (ALZET 2001™, Alza, Palo Alto, Calif.), which were placed in a subcutaneous tunnel in the dorsal neck region of the rats while they were anesthetized with KETAMINE™/XYLAZINE™ anesthesia. The pumps were filled with solutions so that the calculated daily dose was 50 μg or 10 μg, assuming that 24 μl of solution was delivered each day for one week.
Recombinant human GH was administered for one week by twice daily SC injections of 10 μg in 100 μl volume.
Body weights were measured daily in the morning. At the end of the week of dosing the animals were anesthetized via CO2 and exsanguinated via cardiac puncture. The remaining blood was allowed to clot and serum was separated and stored for further analysis.
Spleen, thymus, heart, liver, kidney, and perirenal fat were removed and weighed. The tibia was removed and fixed in neutral buffered formalin for histological measurement of epiphyseal plate width.
Serum chemistries were measured on an automated Chem I analyzer. Serum insulin concentration was measured using an RIA Kit supplied by Linco, Inc. To measure the IGF-I concentrations the serum was extracted using acid ethanol and the supernatant diluted to neutrality and assayed for IGF-I by RIA.
Tibia were sectioned longitudinally, stained with Toluene Blue, and mounted on microscope slides. The tibial epiphyseal plate width was measured using an ocular micrometer attached to a microscope.
Data were analyzed statistically by analysis of variance using one factor and two factor ANOVA.

[1] = test system: Zucker Diabetic Fatty rats; test: IV bolus injection into diabetic rats, plasma glucose and insulin; type: in vivo, rat; conditions: ZDF rats, 100 μg IV; for fall in blood glucose: after 10 minutes
Experimental: Eighteen 7-week-old male Zucker Diabetic Fatty rats (250-300 g, Genetic Models Inc.) were anesthetized using KETAMINE™ (62.5 mg/kg)/ROMPUN XYLAZINE™ (12.5 mg/kg) anesthesia. The right jugular vein was cannulated using a silicone rubber catheter and the rats were allowed to recover.
Two days after surgery the rats (5-6/group) were divided into three treatment groups and given IV via the jugular catheter 200 μl of:
Three days later, using the same rats the study was repeated. The rats that were dosed with IGF-I in the initial study received the IGF mutant in the repeat study and vice versa. Control animals received PBS in both experiments.
Two blood samples were collected from each rat via the jugular cannula prior to IV dosing with the hormones and then blood samples were collected after 10, 30, 60, and 120 minutes. The plasma was immediately separated by centrifugation. The glucose concentration was measured by a coupled hexokinase procedure using a Chem 1A serum chemistry analyzer. Insulin concentration was measured using a rat insulin RIA kit (Linco Research, Inc., St. Charles, Mo.).
Statistical comparisons for each time point were made by an ANOVA with a Duncan's Multiple Range test. A p value of <0.05 was considered as being statistically significant. All data are represented as the mean±SEM, with five or six animals per treatment group.

[2] = target: T1, Type 1 IGF receptor (derived from placental membranes) (Homo sapiens, UniProt P08069); conditions: Type 1 IGF receptor from placental membranes; Bayne et al.; read-out: half maximal inhibition of ligand binding; cited from earlier work
T1 construct: Type 1 IGF receptor (derived from placental membranes); host or cells: placental membranes

male Wistar rats = test: IV injection into conscious normal rats, plasma glucose and insulin; type: in vivo, rat; conditions: 100 μg IV; for fall in blood glucose / plasma insulin response: after 10 mins
Experimental: Seven week old male Wistar rats (240-250 g, Charles Rivers Laboratories, Hollister, Calif.) were anesthetized with KETAMINE/XYLAZINE™ anesthesia and the right jugular vein was cannulated with a silicone rubber cannula that was developed for chronic blood sampling. Clark et al., J. Endocrinol., 111: 27-35 (1986). Following a two- to three-day recovery period, two basal blood samples were taken at −10 and −5 minutes, the test substances administered to the rats by IV injection, and then blood samples collected after 5, 10, 20, 30, 45, 60, and 120 minutes, and the plasma was immediately separated by centrifugation. The glucose and insulin concentrations were subsequently determined either by a coupled hexokinase procedure using a Chem 1A serum chemistry analyzer or, in the later case, a rat insulin RIA kit (Linco Research, Inc., St. Charles, Mo.).
Statistical comparisons were made by an analysis of variance (ANOVA) with a Duncan's Multiple Range test. A p value of <0.05 was considered as being statistically significant. All data are represented as the mean±SEM.
Two treatment groups, with five rats per group, were dosed IV with either (Leu^24,Ala^31)hIGF-I (100 μg) or PBS.
The rats in three treatment groups, with 4-5 rats per group, were dosed IV with either (Leu^24,Ala^31)hIGF-I (100 μg) or rhIGF-I (100 μg) and a control group was given PBS.

T1 sequence (P08069 31-736 limits assumed): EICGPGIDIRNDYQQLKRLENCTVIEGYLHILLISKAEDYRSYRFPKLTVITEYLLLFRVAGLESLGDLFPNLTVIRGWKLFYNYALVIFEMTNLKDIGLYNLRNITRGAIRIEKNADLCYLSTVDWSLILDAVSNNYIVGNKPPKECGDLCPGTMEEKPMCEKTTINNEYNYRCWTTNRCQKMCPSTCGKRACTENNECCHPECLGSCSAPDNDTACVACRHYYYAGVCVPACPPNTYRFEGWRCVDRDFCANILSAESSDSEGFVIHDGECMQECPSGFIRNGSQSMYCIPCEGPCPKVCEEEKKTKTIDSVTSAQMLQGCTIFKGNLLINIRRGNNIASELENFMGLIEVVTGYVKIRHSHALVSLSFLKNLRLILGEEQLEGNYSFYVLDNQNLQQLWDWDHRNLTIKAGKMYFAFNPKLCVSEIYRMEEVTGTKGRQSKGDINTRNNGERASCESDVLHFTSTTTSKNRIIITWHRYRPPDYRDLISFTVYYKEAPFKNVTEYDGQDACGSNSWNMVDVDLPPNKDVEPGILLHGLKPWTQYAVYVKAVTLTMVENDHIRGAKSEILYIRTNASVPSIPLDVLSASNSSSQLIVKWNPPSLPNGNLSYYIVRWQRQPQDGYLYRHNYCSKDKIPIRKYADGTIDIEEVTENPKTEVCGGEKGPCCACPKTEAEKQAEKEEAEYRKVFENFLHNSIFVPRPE
T1 sequence (P08069 741-1367 partner limits assumed): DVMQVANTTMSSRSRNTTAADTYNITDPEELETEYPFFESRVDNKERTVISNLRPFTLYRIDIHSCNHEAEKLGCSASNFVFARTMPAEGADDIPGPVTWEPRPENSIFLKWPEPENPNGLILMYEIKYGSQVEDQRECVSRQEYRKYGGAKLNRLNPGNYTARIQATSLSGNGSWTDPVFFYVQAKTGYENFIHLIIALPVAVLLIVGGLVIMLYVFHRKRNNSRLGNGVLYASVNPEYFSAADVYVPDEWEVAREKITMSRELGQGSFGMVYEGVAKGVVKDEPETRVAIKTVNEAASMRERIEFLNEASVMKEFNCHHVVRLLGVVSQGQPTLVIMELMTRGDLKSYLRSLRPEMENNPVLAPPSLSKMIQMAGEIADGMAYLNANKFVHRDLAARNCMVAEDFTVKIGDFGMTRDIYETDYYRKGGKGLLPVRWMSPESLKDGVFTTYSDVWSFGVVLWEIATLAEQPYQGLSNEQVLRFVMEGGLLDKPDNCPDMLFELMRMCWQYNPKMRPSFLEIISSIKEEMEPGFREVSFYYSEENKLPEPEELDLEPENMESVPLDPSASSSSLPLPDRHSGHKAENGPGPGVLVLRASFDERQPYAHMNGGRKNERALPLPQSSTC

## (Leu^24,Ala^31)hIGF-I
Hypophysectomized rats
  blood levels of endogenous rat IGF-I: lower
Hypophysectomized rats; IGF agonist 10 μg
  total IGF-I (rat and human) in blood: not a rise in total IGF
Hypophysectomized rats; IGF agonist 10 μg/day SC minipump
  body weight gain: mean weight gain that was numerically smaller than that of the control group
Hypophysectomized rats; IGF agonist 50 μg alone or with GH
  total IGF-I (rat and human) in blood: rise in total IGF-I
Hypophysectomized rats; IGF agonist 50 μg/day SC minipump, hGH 20 μg/day SC, or both
  body weight gain: only a small amount of activity
Hypophysectomized rats; IGF agonist 50 μg/day, hGH 20 μg/day, or both
  absolute thymus weight: increased
Hypophysectomized rats; IGF agonist 10 and 50 μg, hGH 20 μg/day, or combination
  absolute and relative heart weight: significant increase in the absolute and the relative size of the heart
Hypophysectomized rats; IGF mutant 10 and 50 μg/day, hGH 20 μg/day, or hGH plus 50 μg/day
  absolute spleen weight: increased by both doses
Hypophysectomized rats; low-dose mutant (10 μg/day)
  bone growth (tibial epiphyseal plate width): did not increase bone growth
Hypophysectomized rats; mutant 50 μg/day alone or with rhGH
  bone growth (tibial epiphyseal plate width): significant increase in bone growth
[1]; Study One
  plasma insulin response: suppressed blood insulin concentrations
  fall in blood glucose: smaller, but statistically significant
[2]
  pIC50: 5.70
Male Wistar rats; Study One
  plasma insulin levels, % of that of the control group: 25%
  time plasma insulin remained depressed: 60 min
  fall in blood glucose: brief but statistically significant
Male Wistar rats; Study Two
  time plasma insulin remained depressed: ≥ 120 min
  fall in blood glucose: small but statistically significant fall in blood glucose
  plasma insulin response: fall in insulin concentrations of a similar magnitude and degree of statistical significance

## IGF-I: native-sequence recombinant human insulin-like growth factor-I (Genentech)
[1]; Study One
  plasma insulin response: large, and maintained fall in plasma insulin
  fall in blood glucose: immediate, moderate, and statistically significant
[1]; Study Two
  plasma insulin response: large, and maintained fall in plasma insulin
  fall in blood glucose: immediate, moderate, and statistically significant
Male Wistar rats; Study Two
  time plasma insulin remained depressed: 120 min
  fall in blood glucose: brief but statistically significant fall in blood glucose
  plasma insulin response: decreased significantly
